Test results: patent US20150004134A1, “TREATMENT OF CANCER WITH HETEROCYCLIC INHIBITORS OF GLUTAMINASE” (Calithera Biosciences, Inc., priority 2012, published 2015)

What follows are molecules tested on P493-6 (myc "on") cells (assay: Cell Proliferation Assay). Conditions: P493-6, 72 h, read-out: Cell prolif P493 72 h IC50, P493-6 cells, 72 h.
Format: cell-based
Protocol: P493-6 (myc “on”) cells were maintained in growth media (RPMI-1640, 10% FBS, 2 mM glutamine, 100 units/ml Penicillin and 100 μg/ml streptomycin) at 37° C. with 5% CO2. For compound assay, P493-6 cells were plated in 96-well V-bottom plates on the day of compound addition in 50 μl of growth media at a cell density of 200,000 cells/ml (10,000 cells/well). Compounds were serially diluted in 100% DMSO at 200-times the final concentration. Compounds were diluted 100-fold into growth media and then 50 μl of this mixture was added to cell plates making the final concentration of DMSO 0.5%. Cells were incubated with compound for 72 hrs at 37° C. with 5% CO2 and analyzed for antiproliferative effects either by Cell Titer Glo (Promega) or FACS analysis using the Viacount (Millipore) kit on the Guava instrument.

Point of comparison: CC(NC(=O)OC(C)(C)C)c1cccc(CC(=O)Nc2nnc(CCCCc3ccc(NC(=O)Cc4ccccc4)nn3)s2)c1 (stereo not drawn) [Compound 541], IC50 0.006 µM. Against it:
- O=C(O)Cc1cccc(OCC(=O)Nc2nnc(CCCCc3ccc(NC(=O)Cc4ccccc4)nn3)s2)c1 [Compound 627] — 140-fold higher, 0.85 µM
- CC(=O)Nc1ccc(CCCCc2nnc(NC(=O)Cc3cccc(CNC(=O)CC(C)C)c3)s2)nn1 [Compound 461] — 10-fold higher, 0.062 µM
- Cc1cccc(CNC(=O)Nc2nnc(CCCCc3nnc(NC(=O)Cc4ccccc4)s3)s2)c1 [Compound 417] — 53-fold higher, 0.32 µM
- CC(C)(C)OC(=O)N1CCN(Cc2cc(CC(=O)Nc3nnc(CCCCc4ccc(NC(=O)Cc5ccccc5)nn4)s3)ccc2F)CC1 [Compound 493] — 9.5-fold higher, 0.057 µM
- O=C(Cc1ccccc1)Nc1ccc(CCCCc2nnc(NC(=O)Cc3cccc4[nH]ncc34)s2)nn1 [Compound 512] — 7.7-fold higher, 0.046 µM
- COC(C(=O)Nc1nnc(CCCCc2ccc(NC(=O)Cc3cccc(CNC(=O)CC(C)(O)C(F)(F)F)c3)nn2)s1)c1ccccc1 (stereo not drawn) [Compound 605] — 3-fold higher, 0.018 µM
- CN(Cc1cccc(CC(=O)Nc2nnc(CCCCc3ccc(NC(=O)Cc4ccccc4)nn3)s2)c1)C(=O)OC(C)(C)C [Compound 396] — within 1.5-fold, 0.005 µM
- O=C(Cc1ccccc1)Nc1ccc(CCCCc2nnc(NC(=O)Cc3cccc(CC(=O)N4CCC(F)(F)CC4)c3)s2)nn1 [Compound 474] — 1.5-fold lower, 0.004 µM
- CC(C(=O)Nc1nnc(CCCCc2ccc(NC(=O)Cc3cccc(CNC(=O)CC(C)(O)C(F)(F)F)c3)nn2)s1)c1ccccc1 (stereo not drawn) [Compound 607] — 7.8-fold higher, 0.047 µM

Same assay, conditions: P493-6, 72 h, read-out: Cell prolif P493 72 h IC50, P493 cells, 72 h

Point of comparison: O=C(Cc1ccsc1)Nc1nnc(CCSCCc2nnc(NC(=O)Cc3ccsc3)s2)s1 [Compound 84], IC50 0.89 µM. Against it:
- O=C(Cc1ccccc1)Nc1nnc(CCSCc2nnc(NC(=O)[C@@H](O)c3ccccc3)s2)s1 [Compound 377] — 8.9-fold lower, 0.1 µM
- CN(Cc1cccc(CC(=O)Nc2nnc(CCCCc3nnc(NC(=O)Cc4ccccc4)s3)s2)c1)C(=O)OC(C)(C)C [Compound 391] — 33-fold lower, 0.027 µM
- O=C(Cc1ccccc1)Nc1nnc(CCCCc2nnc(NC(=O)[C@H]3CCCC[C@@H]3C(=O)c3ccccc3)s2)s1 [Compound 290] — within 1.5-fold, 0.79 µM
- Cc1cc(C)n(CC(=O)Nc2nnc(CCSCCc3nnc(NC(=O)Cn4nc(C)cc4C)s3)s2)n1 [Compound 97] — 19-fold higher, 17 µM
- COc1ccccc1C(C)C(=O)Nc1nnc(CCSCCc2nnc(NC(=O)C(C)c3ccccc3OC)s2)s1 (stereo not drawn) [Compound 263] — 4.4-fold higher, 3.9 µM
- O=C(Nc1nnc(CCCCc2nnc(NC(=O)[C@@H](O)c3ccccc3Cl)s2)s1)[C@@H](O)c1ccccc1Cl [Compound 210] — 2.1-fold lower, 0.42 µM
- COCC(C(=O)Nc1nnc(CCCCc2nnc(NC(=O)C(COC)c3ccccc3)s2)s1)c1ccccc1 (stereo not drawn) [Compound 165] — 37-fold higher, 33 µM
- COc1ccccc1CC(=O)Nc1nnc(CCCCc2nnc(NC(=O)Cc3ccccc3OC)s2)s1 [Compound 264] — 89-fold lower, 0.01 µM
- CC(C(=O)Nc1nnc(CCSCCc2nnc(NC(=O)C(C)c3ccccc3Cl)s2)s1)c1ccccc1Cl (stereo not drawn) [Compound 261] — 2.9-fold higher, 2.6 µM
- O=C(Nc1nnc(CCSCCc2nnc(NC(=O)C3CCc4ccccc4C3)s2)s1)C1CCc2ccccc2C1 (stereo not drawn) [Compound 37] — higher, > 50 µM
- O=C(Cc1ccccc1)Nc1nnc(CCSCCc2nnc(NC(=O)C(c3ccccc3)N3CCNCC3)s2)s1 (stereo not drawn) [Compound 78] — 11-fold higher, 10 µM
- CC[C@](O)(C(=O)Nc1nnc(CCCCc2nnc(NC(=O)[C@@](O)(CC)c3ccccc3)s2)s1)c1ccccc1 [Compound 143] — 2.5-fold higher, 2.2 µM
- CC(C)[C@H](NC(=O)OC(C)(C)C)C(=O)Nc1nnc(CCCCc2nnc(NC(=O)[C@@H](NC(=O)OC(C)(C)C)C(C)C)s2)s1 [Compound 42] — higher, > 50 µM
- N[C@H](C(=O)Nc1nnc(CCSCCc2nnc(NC(=O)[C@@H](N)c3ccccc3)s2)s1)c1ccccc1 [Compound 175] — 26-fold higher, 23 µM
- O=C(Cc1ccccc1)Nc1ccc(CCCCc2nnc(NC(=O)C(OC(=O)CCN3CCOCC3)c3ccccc3)s2)nn1 (stereo not drawn) [Compound 334] — 30-fold lower, 0.03 µM
- O=C(Nc1nnc(CCSCCc2nnc(NC(=O)[C@H](O)c3ccccc3)s2)s1)[C@H](O)c1ccccc1 [Compound 81] — 8.5-fold higher, 7.6 µM
- CC(CO)(CO)C(=O)Nc1nnc(CCCCc2nnc(NC(=O)C(C)(CO)CO)s2)s1 [Compound 151] — higher, > 50 µM
- CS(=O)(=O)c1ccc(CC(=O)Nc2nnc(CCSCCc3nnc(NC(=O)Cc4ccc(S(C)(=O)=O)cc4)s3)s2)cc1 [Compound 182] — higher, > 50 µM
- CC(C)(C)OC(=O)N1CCN(Cc2cccc(CC(=O)Nc3nnc(CCSCc4nnc(NC(=O)Cc5cccc(CN6CCN(C(=O)OC(C)(C)C)CC6)c5)s4)s3)c2)CC1 [Compound 275] — 2.6-fold lower, 0.34 µM
- O=C(Cc1cccc(-n2ccnc2)c1)Nc1nnc(CCCCc2nnc(NC(=O)Cc3cccc(-n4ccnc4)c3)s2)s1 [Compound 363] — higher, > 20 µM
- O=C(Cc1ccccc1)Nc1nnc(CCCCc2nnc(NC(=O)Cc3ccccc3)s2)s1 [Compound 21, N,N′-[5,5′-(butane-1,4-diyl)-bis(1,3,4-thiadiazole-5,2-diyl)]-bis(2-phenylacetamide)] — 44-fold lower, 0.02 µM
- O=C(Cc1cccc(OCCO)c1)Nc1nnc(CCSCCc2nnc(NC(=O)Cc3cccc(OCCO)c3)s2)s1 [Compound 236] — 1.6-fold higher, 1.4 µM
- COc1cccc(C(O)C(=O)Nc2nnc(CCCCc3ccc(NC(=O)Cc4ccccc4)nn3)s2)c1 (stereo not drawn) [Compound 317] — 89-fold lower, 0.01 µM
- O=C(Cc1ccccc1Br)Nc1nnc(CCCCc2nnc(NC(=O)Cc3ccccc3Br)s2)s1 [Compound 282] — 2.4-fold lower, 0.37 µM
- Nc1nnc(CCCCc2ccc(NC(=O)Cc3ccccc3)nn2)s1 [Compound 342] — 3-fold higher, 2.7 µM
- COC(C(=O)Nc1nnc(CCCCc2nnc(NC(=O)C(OC)c3ccccc3)s2)s1)c1ccccc1 (stereo not drawn) [Compound 65] — 1.7-fold lower, 0.52 µM
- O=C(CC(C(=O)O)c1ccccc1)Nc1nnc(CCCCc2nnc(NC(=O)CC(C(=O)O)c3ccccc3)s2)s1 (stereo not drawn) [Compound 177] — higher, > 50 µM
- C=CCC(C(=O)Nc1nnc(CCCCc2nnc(NC(=O)C(CC=C)c3ccccc3)s2)s1)c1ccccc1 (stereo not drawn) [Compound 209] — 25-fold higher, 22 µM
- O=C(Cc1ccccc1CO)Nc1nnc(CCSCCc2nnc(NC(=O)Cc3ccccc3CO)s2)s1 [Compound 181, N,N′-(5,5′-(thiobis(ethane-2,1-diyl))bis(1,3,4-thiadiazole-5,2-diyl))bis(2-(2-(hydroxymethyl)phenyl)acetamide)] — 34-fold higher, 30 µM
- O=C(N[C@@H](CO)C(=O)Nc1nnc(CCSCCc2nnc(NC(=O)[C@H](CO)NC(=O)OCc3ccccc3)s2)s1)OCc1ccccc1 [Compound 138] — 3-fold higher, 2.7 µM
- COc1cc(C(O)C(=O)Nc2nnc(CCCCc3nnc(NC(=O)C(O)c4ccc(O)c(OC)c4)s3)s2)ccc1O (stereo not drawn) [Compound 319] — 11-fold higher, 10 µM
- COc1ccc(CC(=O)Nc2nnc(CCSCCc3nnc(NC(=O)Cc4ccc(OC)c(OC)c4)s3)s2)cc1OC [Compound 157] — 4.9-fold lower, 0.18 µM
- O=C(Nc1nnc(CCCCc2nnc(NC(=O)[C@@H](O)[C@H](O)c3ccccc3)s2)s1)[C@@H](O)[C@H](O)c1ccccc1 [Compound 226] — higher, > 50 µM
- O=C(CC1CC1)Nc1nnc(CCCCc2nnc(NC(=O)CC3CC3)s2)s1 [Compound 85] — 2-fold higher, 1.8 µM
- O=C(Nc1nnc(CCCCc2nnc(NC(=O)C3CCCC3)s2)s1)C1CCCC1 [Compound 53] — 38-fold higher, 34 µM
- CC(C)(C)OC(=O)N1CCCC(CC(=O)Nc2nnc(CCCCc3nnc(NC(=O)CC4CCCN(C(=O)OC(C)(C)C)C4)s3)s2)C1 (stereo not drawn) [Compound 115] — within 1.5-fold, 1.1 µM
- O=C(C[C@@H](O)C(=O)O)Nc1nnc(CCCCc2nnc(NC(=O)C[C@@H](O)C(=O)O)s2)s1 [Compound 154] — higher, > 50 µM
